Measured values as given in ChEMBL document CHEMBL4706545, “Antiproliferative effect of mitochondria-targeting allobetulin 1,2,3-triazolium salt derivatives and their mechanism of inducing apoptosis of cancer cells” (Eur J Med Chem, 2020).
Active and inactive are the calls of the source. The calls are words filed in the database; no cut-off is given here.

Legend:
HeLa = test: Cytotoxicity against human HeLa cells assessed as reduction in cell viability incubated for 48 hrs by MTT assay; assay type: functional, cell-based
ECa-109 cell line [1] = test: Induction of apoptosis in human ECa-109 cells at 1 to 4 uM incubated for 48 hrs by AO/PI staining based fluorescence microscopic analysis; assay type: functional, cell-based; conditions: dose 1-4 µM
ECa-109 cell line [2] = test: Induction of cell cycle arrest in human ECa-109 cells assessed as accumulation in S phase at 4 uM incubated for 48 hrs by PI staining based flow cytometry analysis (reference value: 39.33 %); assay type: functional
ECa-109 cell line [3] = test: Induction of ROS-mediated apoptosis in human ECa-109 cells assessed as early apoptotic cells at 4 uM incubated for 48 hrs by annexin V-PE and 7-AAD staining based flow cytometry analysis (reference value: 2.70 %); assay type: functional
ECa-109 cell line [4] = test: Induction of ROS-mediated apoptosis in human ECa-109 cells assessed as viable cells at 2 uM incubated for 48 hrs by annexin V-PE and 7-AAD staining based flow cytometry analysis (reference value: 92.7 %); assay type: functional; conditions: read-out: Activity
HepG2 = test: Cytotoxicity against human HepG2 cells assessed as reduction in cell viability incubated for 48 hrs by MTT assay; assay type: functional, cell-based; conditions: HepG2, 48 h
ECa-109 cell line [5] = test: Induction of apoptosis in human ECa-109 cells assessed as decrease in caspase-3 incubated for 48 hrs by Western blot analysis; assay type: functional, cell-based; conditions: dose 1-4 µM
ECa-109 cell line [6] = test: Induction of ROS-mediated apoptosis in human ECa-109 cells assessed as early apoptotic cells at 1 uM incubated for 48 hrs by annexin V-PE and 7-AAD staining based flow cytometry analysis (reference value: 2.70 %); assay type: functional
ECa-109 cell line [7] = test: Induction of cell cycle arrest in human ECa-109 cells assessed as accumulation in G2/M phase at 1 uM incubated for 48 hrs by PI staining based flow cytometry analysis (reference value: 8.39 %); assay type: functional
ECa-109 cell line [8] = test: Induction of apoptosis in human ECa-109 cells assessed as viable cells at 4 uM incubated for 48 hrs by annexin-V-FITC and PI staining based fluorescence microscopic analysis (reference value: 95.8 %); assay type: functional; conditions: read-out: Activity
SGC-7901 [9] = test: Cytotoxicity against human SGC-7901 cells assessed as reduction in cell viability incubated for 48 hrs by MTT assay; assay type: functional, cell-based; conditions: SGC-7901, 48 h
L02 = test: Cytotoxicity against human HL7702 cells assessed as reduction in cell viability incubated for 48 hrs by MTT assay; assay type: ADME, cell-based; conditions: L02, 48 h
ECa-109 cell line [10] = test: Cytotoxicity against human ECa-109 cells assessed as reduction in cell viability incubated for 48 hrs by MTT assay; assay type: functional, cell-based; conditions: ECa-109, 48 h
ECa-109 cell line [11] = test: Induction of apoptosis in human ECa-109 cells assessed as downregulation of Bcl-2 incubated for 48 hrs by Western blot analysis; assay type: functional, cell-based; conditions: dose 1-4 µM
ECa-109 cell line [12] = test: Induction of apoptosis in human ECa-109 cells assessed as late apoptotic cells incubated for 48 hrs by annexin-V-FITC and PI staining based fluorescence microscopic analysis; assay type: functional, cell-based; conditions: dose 1-4 µM
SGC-7901 [13] = test: Induction of cell cycle arrest in human SGC-7901 cells assessed as accumulation in G2/M phase at 1 uM incubated for 48 hrs by PI staining based flow cytometry analysis (reference value: 11.48 %); assay type: functional
SGC-7901 [14] = test: Induction of apoptosis in human SGC-7901 cells assessed as downregulation of Bcl-2 incubated for 48 hrs by Western blot analysis; assay type: functional, cell-based; conditions: dose 1-4 µM
SGC-7901 [15] = test: Induction of ROS-mediated apoptosis in human SGC-7901 cells assessed as necrotic cells at 4 uM incubated for 48 hrs by annexin V-PE and 7-AAD staining based flow cytometry analysis (reference value: 0.733 %); assay type: functional
SGC-7901 [16] = test: Induction of apoptosis in human SGC-7901 cells assessed as decrease in caspase-3 incubated for 48 hrs by Western blot analysis; assay type: functional, cell-based; conditions: dose 1-4 µM
SGC-7901 [17] = test: Induction of apoptosis in human SGC-7901 cells assessed as upregulation of Bax incubated for 48 hrs by Western blot analysis; assay type: functional, cell-based; conditions: dose 1-4 µM
SGC-7901 [18] = test: Induction of ROS-mediated apoptosis in human SGC-7901 cells assessed as early apoptotic cells at 2 uM incubated for 48 hrs in presence of NAC by annexin V-PE and 7-AAD staining based flow cytometry analysis (reference value: 1.15 %); assay type: functional
SGC-7901 [19] = test: Induction of ROS-mediated apoptosis in human SGC-7901 cells assessed as necrotic cells at 1 uM incubated for 48 hrs in presence of NAC by annexin V-PE and 7-AAD staining based flow cytometry analysis (reference value: 0.623 %); assay type: functional
SGC-7901 [20] = test: Induction of ROS-mediated apoptosis in human SGC-7901 cells assessed as late apoptotic cells at 4 uM incubated for 48 hrs by annexin V-PE and 7-AAD staining based flow cytometry analysis (reference value: 3.82 %); assay type: functional
SGC-7901 [21] = test: Induction of ROS-mediated apoptosis in human SGC-7901 cells assessed as early apoptotic cells at 4 uM incubated for 48 hrs in presence of NAC by annexin V-PE and 7-AAD staining based flow cytometry analysis (reference value: 1.15 %); assay type: functional
SGC-7901 [22] = test: Induction of cell cycle arrest in human SGC-7901 cells assessed as accumulation in G2/M phase at 4 uM incubated for 48 hrs by PI staining based flow cytometry analysis (reference value: 11.48 %); assay type: functional
SGC-7901 [23] = test: Induction of apoptosis in human SGC-7901 cells assessed as late apoptotic cells incubated for 48 hrs by annexin-V-FITC and PI staining based fluorescence microscopic analysis; assay type: functional, cell-based; conditions: dose 1-4 µM
SGC-7901 [24] = test: Induction of ROS-mediated apoptosis in human SGC-7901 cells assessed as early apoptotic cells at 2 uM incubated for 48 hrs by annexin V-PE and 7-AAD staining based flow cytometry analysis (reference value: 1.89 %); assay type: functional
[25] = Selectivity index, ratio of IC50 for cytotoxicity against human HL7702 cells to IC50 for cytotoxicity against human SGC-7901 cells
SGC-7901 [26] = test: Induction of apoptosis in human SGC-7901 cells assessed as decrease in caspase-8 incubated for 48 hrs by Western blot analysis; assay type: functional, cell-based; conditions: dose 1-4 µM
SGC-7901 [27] = test: Induction of ROS generation in human SGC-7901 cells incubated for 48 hrs by DCFH-DA staining based fluorescence microscopic analysis; assay type: functional, cell-based; conditions: dose 1-4 µM
SGC-7901 [28] = test: Induction of ROS-mediated apoptosis in human SGC-7901 cells assessed as late apoptotic cells at 4 uM incubated for 48 hrs in presence of NAC by annexin V-PE and 7-AAD staining based flow cytometry analysis (reference value: 3.45 %); assay type: functional
SGC-7901 [29] = test: Induction of apoptosis in human SGC-7901 cells assessed as downregulation of Bcl-xl incubated for 48 hrs by Western blot analysis; assay type: functional, cell-based; conditions: dose 1-4 µM
SGC-7901 [30] = test: Induction of apoptosis in human SGC-7901 cells assessed as late apoptotic cells at 4 uM incubated for 48 hrs by annexin-V-FITC and PI staining based fluorescence microscopic analysis (reference value: 3.87 %); assay type: functional
SGC-7901 [31] = test: Induction of ROS-mediated apoptosis in human SGC-7901 cells assessed as late apoptotic cells at 2 uM incubated for 48 hrs in presence of NAC by annexin V-PE and 7-AAD staining based flow cytometry analysis (reference value: 3.45 %); assay type: functional
SGC-7901 [32] = test: Induction of cell cycle arrest in human SGC-7901 cells assessed as accumulation in S phase at 2 uM incubated for 48 hrs by PI staining based flow cytometry analysis (reference value: 31.13 %); assay type: functional

Q: With `COc1ccccc1Cn1n[n+](C)c2c1C(C)(C)[C@@H]1CC[C@]3(C)[C@H](CC[C@@H]4[C@H]5[C@H]6OC[C@@]5(CCC6(C)C)CC[C@]43C)[C@@]1(C)C2.[I-]` as the compound, how does the IC50 (HeLa) read?
A: Its IC50 is 1490 nM.

Q: What about the Activity (ECa-109 cell line [1]) of the same compound?
A: The Activity was “Active”.

Q: What about the Activity (ECa-109 cell line [2]) of the same compound?
A: The Activity was 43.8%.

Q: What about the Activity (ECa-109 cell line [3]) of the same compound?
A: The Activity was 2%.

Q: And the viability at 2 µM (ECa-109 cell line [4])?
A: Its viability at 2 µM is 55%.

Q: And the IC50 (HepG2)?
A: Its IC50 is 1520 nM.

Q: And the Activity (ECa-109 cell line [5])?
A: Its Activity is “Dose-dependent effect”.

Q: What about the Activity (ECa-109 cell line [6]) of the same compound?
A: Its Activity is 11.6%.

Q: And the Activity (ECa-109 cell line [7])?
A: Its Activity is 10.81%.

Q: And the viability at 4 µM (ECa-109 cell line [8])?
A: Its viability at 4 µM is 1.26%.

Q: What about the IC50 (SGC-7901 [9]) of the same compound?
A: Its IC50 is 1920 nM.

Q: And the IC50 (L02)?
A: Its IC50 is 1590 nM.

Q: And the IC50 (ECa-109 cell line [10])?
A: The IC50 was 1040 nM.

Q: And the Activity (ECa-109 cell line [11])?
A: The Activity was “Dose-dependent effect”.

Q: And the Activity (ECa-109 cell line [12])?
A: The Activity was “Dose-dependent effect”.

Q: Which Activity (SGC-7901 [13]) does the source give for `C[n+]1nn(Cc2c(F)cccc2Cl)c2c1C[C@]1(C)[C@H]3CC[C@@H]4[C@H]5[C@H]6OC[C@@]5(CCC6(C)C)CC[C@@]4(C)[C@]3(C)CC[C@H]1C2(C)C.[I-]` here?
A: Its Activity is 5.39%.

Q: And the Activity (SGC-7901 [14])?
A: Its Activity is “Dose-dependent effect”.

Q: And the Activity (SGC-7901 [15])?
A: The Activity was 0.028%.

Q: And the IC50 (HeLa)?
A: Its IC50 is 2160 nM.

Q: And the Activity (SGC-7901 [16])?
A: The Activity was “Dose-dependent effect”.

Q: And the Activity (SGC-7901 [17])?
A: The Activity was “Dose-dependent effect”.

Q: And the Activity (SGC-7901 [18])?
A: The Activity was 19.5%.

Q: What about the Activity (SGC-7901 [19]) of the same compound?
A: The Activity was 1.21%.

Q: What about the Activity (SGC-7901 [20]) of the same compound?
A: Its Activity is 99.6%.

Q: What about the Activity (SGC-7901 [21]) of the same compound?
A: The Activity was 4.28%.

Q: And the IC50 (HepG2)?
A: The IC50 was 2620 nM.

Q: And the Activity (SGC-7901 [22])?
A: The Activity was 18.35%.

Q: And the Activity (SGC-7901 [23])?
A: The Activity was “Dose-dependent effect”.

Q: What about the Activity (SGC-7901 [24]) of the same compound?
A: Its Activity is 26.5%.

Q: And the “Ratio IC50” value [25]?
A: Its value is 2.08.

Q: What about the Activity (SGC-7901 [26]) of the same compound?
A: The Activity was “Dose-dependent effect”.

Q: And the IC50 (SGC-7901 [9])?
A: Its IC50 is 1120 nM.

Q: And the IC50 (L02)?
A: Its IC50 is 2330 nM.

Q: And the Activity (SGC-7901 [27])?
A: Its Activity is “Dose-dependent effect”.

Q: And the Activity (SGC-7901 [28])?
A: Its Activity is 77.8%.

Q: And the IC50 (ECa-109 cell line [10])?
A: The IC50 was 2630 nM.

Q: And the Activity (SGC-7901 [29])?
A: The Activity was “Dose-dependent effect”.

Q: And the Activity (SGC-7901 [30])?
A: Its Activity is 97.3%.

Q: What about the Activity (SGC-7901 [31]) of the same compound?
A: The Activity was 8.6%.

Q: And the Activity (SGC-7901 [32])?
A: Its Activity is 15.76%.
